Source: ChEMBL document CHEMBL1201862, “PubChem BioAssay data set” (2004)
Active and inactive are the calls of the source.

Key:
[1] = target: Cytochrome P450 2C9 (Homo sapiens, UniProt P11712); conditions: Potency
[2] = target: SUMO-activating enzyme (Homo sapiens, UniProt Q9UBT2); test: blockers of UBC9-mediated SUMO conjugation – biochemical, AlphaScreen, SUMOylation inhibitor project, confirmation (AID 2018); format: functional
[3] = target: T1, Estrogen receptor (Homo sapiens, UniProt P03372);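 also: potency for inhibiting coactivator peptide recruitment to the receptor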
T1 sequence (P03372 whole entry): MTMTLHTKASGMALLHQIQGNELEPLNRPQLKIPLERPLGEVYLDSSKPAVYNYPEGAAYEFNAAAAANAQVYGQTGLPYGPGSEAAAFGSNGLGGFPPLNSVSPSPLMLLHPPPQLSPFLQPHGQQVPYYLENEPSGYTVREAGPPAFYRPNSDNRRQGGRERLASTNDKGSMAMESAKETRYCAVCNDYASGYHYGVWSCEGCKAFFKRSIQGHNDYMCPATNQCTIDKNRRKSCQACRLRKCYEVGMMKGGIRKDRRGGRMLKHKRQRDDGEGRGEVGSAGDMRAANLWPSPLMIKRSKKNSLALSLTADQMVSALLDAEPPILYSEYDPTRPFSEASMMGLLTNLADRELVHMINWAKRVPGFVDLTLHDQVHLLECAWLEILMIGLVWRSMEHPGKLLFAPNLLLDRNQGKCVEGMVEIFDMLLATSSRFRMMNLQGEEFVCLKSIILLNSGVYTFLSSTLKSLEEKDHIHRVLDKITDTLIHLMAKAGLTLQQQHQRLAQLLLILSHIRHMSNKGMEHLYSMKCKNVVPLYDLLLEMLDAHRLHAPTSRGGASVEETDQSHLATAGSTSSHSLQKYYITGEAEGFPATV

[4] = target: Estrogen receptor beta (Homo sapiens, UniProt Q92731);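 also: recombinant ER-beta bound to coactivator SRC1 peptide in presence of estradiol agonist; inhibitors block coactivator peptide binding and lower the FRET signal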
[5] = viability loss in HepG2 liver cells – cell-based, ATP luminescence, cherry-pick, set 6, cytotoxicity control, dose response (AID 1053125); format: functional
[6] = Luminescence Cell-Based Dose Retest to Confirm Inhibitors of Cancer Stem Cells. [Related pubchem assays (depositor defined):AID2717, AID2721]; format: functional; conditions: Homo sapiens
[7] = target: Heat shock protein HSP 90-alpha (Homo sapiens, UniProt P07900); format: functional, organism-based
[8] = target: Beta-galactosidase (Escherichia coli, UniProt Q8VNN2); test: detection-enzyme interference by beta-gal modulators – biochemical, E. coli enzyme, set 3, artefact control for CCR6 antagonist project, dose response (AID 504712); format: functional
[9] = P. falciparum Dd2 growth inhibitors, dose response, SYBR Green, cherry-picked samples (AID 1159567); format: functional, cell-based
[10] = toxicity to human hepatoma HepG2 cells – cell-based, cherry-picked samples, cytotoxicity control, dose response (AID 1159577); format: functional
[11] = target: Cytochrome P450 3A4 (Homo sapiens, UniProt P08684); conditions: Potency;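 also: confirmatory qHTS run detecting inhibitors and substrates of CYP3A4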
[12] = Luminescence-based cell-based high throughput dose response assay to identify activators of the DAF-12 from the parasite S. stercoralis (ssDAF-12).; format: functional
[13] = target: T2, Oxysterols receptor LXR-beta (Homo sapiens, UniProt P55055); format: functional, cell-based;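 also: agonist activity at LXR measured by a cell-based luminescence readout across a dose range, run as a counterscreen for daf-12 agonists; potency for activation of Gal4-LXR reporter so compounds are agonists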
T2 sequence (P55055 whole entry): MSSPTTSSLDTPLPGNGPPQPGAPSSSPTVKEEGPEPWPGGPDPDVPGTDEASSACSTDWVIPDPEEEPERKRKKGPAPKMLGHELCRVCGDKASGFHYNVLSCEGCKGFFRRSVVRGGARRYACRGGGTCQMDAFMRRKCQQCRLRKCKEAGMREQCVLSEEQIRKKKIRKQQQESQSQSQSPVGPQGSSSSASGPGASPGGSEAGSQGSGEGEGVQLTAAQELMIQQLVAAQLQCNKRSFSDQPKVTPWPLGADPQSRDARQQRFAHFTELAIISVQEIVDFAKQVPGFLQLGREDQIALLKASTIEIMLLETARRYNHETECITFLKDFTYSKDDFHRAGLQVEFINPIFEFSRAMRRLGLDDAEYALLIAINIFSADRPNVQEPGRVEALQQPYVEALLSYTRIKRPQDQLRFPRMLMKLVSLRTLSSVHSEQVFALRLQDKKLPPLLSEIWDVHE

[14] = target: T2, Oxysterols receptor LXR-beta; test: LXR agonists, Gal4 luciferase reporter, dose response, counter-screen for ssDAF-12 agonist project, cell-based, luminescence, HEK293, S. stercoralis campaign (AID 720737); format: functional; conditions: read-out: IC50 (the source's name)
[15] = test system: BJ; test: BJ-TERT-LT-ST fibroblast viability loss – cell-based, RAS-independent, luminescence, dose response (AID 1935); format: functional; conditions: Homo sapiens;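 also: BJ fibroblasts immortalized with TERT plus LT and ST oncogenes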
[16] = blockers of bursicon-stimulated LGR2 cAMP reporter – cell-based, HEK293, CRE-luciferase reporter, cherry pick, set 2, dose response (AID 743343); format: functional;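 also: transfected cells were stimulated with diluted bursicon conditioned medium after compound addition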
[17] = toxicity toward HepG2 liver cells – cell-based, plate reader, cherry-pick, antagonist series, cytotoxicity control, dose response (AID 743416); format: functional
[18] = test system: BJ; test: growth inhibition of engineered Ras-driven BJ cells – cell-based, alamar blue fluorescence, cherrypicked samples, dose response (AID 2631); format: functional; conditions: Homo sapiens;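 also: confirmatory dose-response assay in RAS-dependent BJ fibroblasts engineered with TERT, LT and ST, with cytotoxicity read by fluorescence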
[19] = viability loss in HEK293 cells – cell-based, plate reader, cherry-picked samples, cytotoxicity control, dose response (AID 743446); format: functional
[20] = target: Luciferin 4-monooxygenase (Photinus pyralis, UniProt P08659); test: inhibition of purified Photinus pyralis luciferase – biochemical, luminescence, dose response (AID 1891)
[21] = A549 cell cytotoxicity, dose response, cytotoxicity control, plate reader, cherry-pick, antagonist series (AID 743412); format: functional, cell-based
[22] = DRD fibroblast viability loss – cell-based, non-viral oncogenic, luminescence, dose response (AID 1934); format: functional; conditions: Homo sapiens
[23] = Luminescence Cell-Based Dose Confirmation HTS to Identify Inhibitors of Platelet Dense Granule Release. [Related pubchem assays: 1663 (Primary HTS), 1678 (Summary of Project)]; format: functional
[24] = blockade of melanocortin 4 receptor signaling – cell-based, plate reader, cherry pick, counter-screen for LGR2 antagonist project, dose response (AID 743444); format: functional;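 also: transfected HEK 293 cells stimulated with alpha-MSH peptide; potency of inhibitors of the alpha-MSH evoked signal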
[25] = test system: INS1; test: INS-1E survival protection against cytokine death – cell-based, luminescence, retest, dose response (AID 449756); format: functional; conditions: Rattus norvegicus;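 also: cell death triggered by IL-1 beta plus TNF-alpha plus IFN-gamma mixture; protective hits raise ATP signal compared with cytokine alone wells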
[26] = test system: BJ; test: BJ-TERT fibroblast viability loss – cell-based, RAS-independent, luminescence, dose response (AID 1933); format: functional; conditions: Homo sapiens
[27] = target: Peroxisome proliferator-activated receptor gamma/Nuclear receptor coactivator 3 (Homo sapiens, UniProt P37231); format: functional;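 also: agonist potency for raising coactivator recruitment to the receptor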
[28] = target: Peroxisome proliferator-activated receptor gamma/Nuclear receptor coactivator 1 (Homo sapiens, UniProt P37231); format: functional;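 also: agonist potency as compounds enhance coactivator SRC-1 recruitment to PPARgamma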
[29] = target: Peroxisome proliferator-activated receptor gamma/Nuclear receptor coactivator 2 (Homo sapiens, UniProt P37231); format: functional;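 also: agonist potency for raising coactivator recruitment to the receptor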
[30] = target: Cytochrome P450 2D6 (Homo sapiens, UniProt P10635);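 also: CYP2D6 member of a cytochrome P450 panel assay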
Sequence of Cytochrome P450 2D6 (P10635 whole entry): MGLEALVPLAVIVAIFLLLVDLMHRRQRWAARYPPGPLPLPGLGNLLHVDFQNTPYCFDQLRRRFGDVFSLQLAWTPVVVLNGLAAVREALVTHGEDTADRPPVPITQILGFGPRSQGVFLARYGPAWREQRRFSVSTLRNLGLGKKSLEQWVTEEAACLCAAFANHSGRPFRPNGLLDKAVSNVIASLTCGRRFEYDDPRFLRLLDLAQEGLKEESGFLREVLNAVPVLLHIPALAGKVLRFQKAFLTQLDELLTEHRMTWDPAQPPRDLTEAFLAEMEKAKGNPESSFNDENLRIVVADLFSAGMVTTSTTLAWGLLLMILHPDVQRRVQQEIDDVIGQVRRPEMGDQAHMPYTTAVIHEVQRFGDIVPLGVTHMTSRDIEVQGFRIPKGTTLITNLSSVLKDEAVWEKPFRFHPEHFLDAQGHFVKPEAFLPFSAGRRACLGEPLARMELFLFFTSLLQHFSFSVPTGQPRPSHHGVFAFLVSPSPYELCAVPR

Sequence of Peroxisome proliferator-activated receptor gamma/Nuclear receptor coactivator 1 (P37231 whole entry): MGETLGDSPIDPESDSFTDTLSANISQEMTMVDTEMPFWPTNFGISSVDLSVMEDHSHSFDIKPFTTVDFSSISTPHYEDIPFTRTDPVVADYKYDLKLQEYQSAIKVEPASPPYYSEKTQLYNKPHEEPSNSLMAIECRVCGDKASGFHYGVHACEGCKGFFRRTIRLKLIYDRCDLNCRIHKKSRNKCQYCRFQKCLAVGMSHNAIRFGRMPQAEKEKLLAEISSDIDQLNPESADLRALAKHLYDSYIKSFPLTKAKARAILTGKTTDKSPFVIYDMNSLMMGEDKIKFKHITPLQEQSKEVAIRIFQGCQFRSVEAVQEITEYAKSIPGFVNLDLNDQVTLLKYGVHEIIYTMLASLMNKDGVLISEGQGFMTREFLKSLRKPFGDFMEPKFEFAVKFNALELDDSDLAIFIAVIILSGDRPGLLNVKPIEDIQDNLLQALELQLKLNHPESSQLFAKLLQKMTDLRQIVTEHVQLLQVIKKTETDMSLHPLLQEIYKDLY
Sequence of Peroxisome proliferator-activated receptor gamma/Nuclear receptor coactivator 1 (Q15788 whole entry, further chain): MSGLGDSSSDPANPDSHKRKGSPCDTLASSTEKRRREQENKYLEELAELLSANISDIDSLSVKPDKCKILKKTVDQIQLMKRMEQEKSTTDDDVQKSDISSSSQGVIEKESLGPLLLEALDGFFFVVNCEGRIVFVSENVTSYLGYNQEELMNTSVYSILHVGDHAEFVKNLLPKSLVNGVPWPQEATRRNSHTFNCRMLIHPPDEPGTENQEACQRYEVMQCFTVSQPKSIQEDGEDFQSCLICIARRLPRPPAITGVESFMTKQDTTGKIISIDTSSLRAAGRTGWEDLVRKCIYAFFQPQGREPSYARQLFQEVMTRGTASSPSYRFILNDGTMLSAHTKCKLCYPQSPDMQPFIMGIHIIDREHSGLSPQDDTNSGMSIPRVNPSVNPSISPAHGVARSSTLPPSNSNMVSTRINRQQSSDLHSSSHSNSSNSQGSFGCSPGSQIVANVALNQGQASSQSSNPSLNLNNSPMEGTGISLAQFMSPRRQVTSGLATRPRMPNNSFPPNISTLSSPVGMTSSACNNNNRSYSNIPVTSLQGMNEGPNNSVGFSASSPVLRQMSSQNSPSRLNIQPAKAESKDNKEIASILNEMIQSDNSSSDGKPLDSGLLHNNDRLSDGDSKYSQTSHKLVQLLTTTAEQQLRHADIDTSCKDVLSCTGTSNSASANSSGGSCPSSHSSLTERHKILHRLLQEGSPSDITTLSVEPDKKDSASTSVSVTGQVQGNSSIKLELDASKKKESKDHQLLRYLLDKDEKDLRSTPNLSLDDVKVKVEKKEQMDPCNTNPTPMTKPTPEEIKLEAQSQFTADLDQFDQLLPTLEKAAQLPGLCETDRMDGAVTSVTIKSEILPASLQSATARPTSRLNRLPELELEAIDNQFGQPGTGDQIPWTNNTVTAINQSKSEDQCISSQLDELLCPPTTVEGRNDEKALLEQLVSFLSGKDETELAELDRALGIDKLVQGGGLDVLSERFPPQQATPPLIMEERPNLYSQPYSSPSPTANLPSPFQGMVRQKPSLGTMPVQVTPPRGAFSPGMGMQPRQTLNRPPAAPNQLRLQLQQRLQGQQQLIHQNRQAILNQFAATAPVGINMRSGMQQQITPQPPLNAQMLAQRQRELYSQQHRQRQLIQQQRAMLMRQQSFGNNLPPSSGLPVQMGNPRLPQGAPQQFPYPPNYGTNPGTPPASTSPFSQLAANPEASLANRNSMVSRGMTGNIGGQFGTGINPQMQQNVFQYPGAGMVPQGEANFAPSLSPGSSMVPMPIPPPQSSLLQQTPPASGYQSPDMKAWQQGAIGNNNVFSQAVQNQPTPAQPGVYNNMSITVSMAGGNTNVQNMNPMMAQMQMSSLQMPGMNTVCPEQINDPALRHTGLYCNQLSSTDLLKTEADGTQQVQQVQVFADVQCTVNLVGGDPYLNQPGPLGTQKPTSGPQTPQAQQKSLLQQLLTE
Sequence of Peroxisome proliferator-activated receptor gamma/Nuclear receptor coactivator 3 (P37231 whole entry): as the sequence (P37231 whole entry) above
Sequence of Peroxisome proliferator-activated receptor gamma/Nuclear receptor coactivator 3 (Q9Y6Q9 whole entry, further chain): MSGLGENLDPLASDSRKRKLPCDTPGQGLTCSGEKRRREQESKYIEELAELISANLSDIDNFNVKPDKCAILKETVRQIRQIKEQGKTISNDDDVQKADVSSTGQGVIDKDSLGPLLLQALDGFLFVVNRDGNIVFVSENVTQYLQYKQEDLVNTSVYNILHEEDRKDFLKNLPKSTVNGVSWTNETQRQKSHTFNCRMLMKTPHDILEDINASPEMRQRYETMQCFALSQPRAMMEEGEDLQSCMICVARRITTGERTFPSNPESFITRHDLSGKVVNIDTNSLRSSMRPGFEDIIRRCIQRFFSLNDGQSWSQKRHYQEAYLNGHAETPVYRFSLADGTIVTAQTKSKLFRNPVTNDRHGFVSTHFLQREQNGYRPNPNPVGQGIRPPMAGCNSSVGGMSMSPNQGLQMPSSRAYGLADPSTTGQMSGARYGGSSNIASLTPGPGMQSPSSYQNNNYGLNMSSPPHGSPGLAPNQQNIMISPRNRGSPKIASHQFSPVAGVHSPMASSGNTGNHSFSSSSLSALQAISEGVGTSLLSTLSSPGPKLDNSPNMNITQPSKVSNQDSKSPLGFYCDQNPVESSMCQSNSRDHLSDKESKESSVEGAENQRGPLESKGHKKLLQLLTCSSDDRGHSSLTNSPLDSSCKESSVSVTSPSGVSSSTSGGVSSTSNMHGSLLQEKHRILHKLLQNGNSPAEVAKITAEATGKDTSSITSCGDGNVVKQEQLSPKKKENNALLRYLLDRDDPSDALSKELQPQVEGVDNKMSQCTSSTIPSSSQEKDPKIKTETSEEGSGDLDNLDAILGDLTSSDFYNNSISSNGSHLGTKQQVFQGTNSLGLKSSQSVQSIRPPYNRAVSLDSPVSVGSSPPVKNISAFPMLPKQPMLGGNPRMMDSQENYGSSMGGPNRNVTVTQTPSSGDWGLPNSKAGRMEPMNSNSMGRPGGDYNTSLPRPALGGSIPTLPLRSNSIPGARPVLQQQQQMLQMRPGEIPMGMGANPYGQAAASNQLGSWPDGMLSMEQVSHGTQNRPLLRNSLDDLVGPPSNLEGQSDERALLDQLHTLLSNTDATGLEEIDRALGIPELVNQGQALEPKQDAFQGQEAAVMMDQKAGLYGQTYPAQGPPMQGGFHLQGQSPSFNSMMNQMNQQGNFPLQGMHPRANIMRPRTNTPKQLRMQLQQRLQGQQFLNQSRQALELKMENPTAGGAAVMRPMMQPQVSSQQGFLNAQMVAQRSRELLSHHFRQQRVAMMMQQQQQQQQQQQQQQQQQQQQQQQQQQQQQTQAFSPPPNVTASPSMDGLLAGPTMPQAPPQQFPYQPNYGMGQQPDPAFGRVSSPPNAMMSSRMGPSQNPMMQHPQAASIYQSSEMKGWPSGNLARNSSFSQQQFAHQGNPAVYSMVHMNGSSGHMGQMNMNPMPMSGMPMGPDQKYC
Sequence of Cytochrome P450 2C9 (P11712 whole entry): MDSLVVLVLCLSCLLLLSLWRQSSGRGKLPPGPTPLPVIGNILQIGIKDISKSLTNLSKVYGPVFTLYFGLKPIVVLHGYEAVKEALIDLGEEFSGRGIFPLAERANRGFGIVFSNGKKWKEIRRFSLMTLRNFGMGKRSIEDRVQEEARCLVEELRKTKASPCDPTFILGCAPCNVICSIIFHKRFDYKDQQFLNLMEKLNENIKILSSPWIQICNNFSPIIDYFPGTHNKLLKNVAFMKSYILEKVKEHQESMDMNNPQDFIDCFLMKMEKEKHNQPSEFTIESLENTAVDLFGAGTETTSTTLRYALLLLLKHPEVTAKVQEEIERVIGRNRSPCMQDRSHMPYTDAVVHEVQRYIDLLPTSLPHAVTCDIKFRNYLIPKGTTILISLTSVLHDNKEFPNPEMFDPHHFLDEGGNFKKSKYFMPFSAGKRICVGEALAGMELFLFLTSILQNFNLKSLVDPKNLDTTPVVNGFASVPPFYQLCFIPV

In the case of `CC(C)(C)c1cc(O)ccc1O` [E319], the AC50 [1] is reported as 7.94 µM (inconclusive).

In the case of `COc1cccc(NC(=O)Nc2nnc(-c3ccccc3SCc3ccccc3)s2)c1`, the IC50 [2] is reported as 56.6 µM (active).

With `O=C(c1cc(-c2ccco2)on1)N1CCCc2ccccc21` the IC50 [3] was > 50 µM (not active) and the IC50 [4] was > 50 µM (not active).

For `CCOc1ccc(-n2c(SCC(=O)Nc3nccs3)nnc2-c2ccoc2C)cc1`, the AC50 [5] was > 52 µM (inactive).

In the case of `O=C1C=CC(=O)N1c1ccc(OC(F)F)cc1`, the AC50 [6] is reported as 3.12 µM (active), the AC50 [7] is reported as 1.65 µM (active) and the IC50 [8] is reported as > 66.6 µM (inactive).

For `CCCC#Cc1ccc([C@H]2[C@@H](CO)N3CCCCN(C(=O)NC4CCCC4)C[C@H]23)cc1`, the AC50 [9] was 5.27 µM (active) and the AC50 [10] was 12.6 µM (active).

In the case of `CCCCCCCC1=CC2=CC(=O)C(C)(OC(C)=O)C(=O)C2=CN1CCc1ccccc1` (configuration not stated), the AC50 [1] is reported as 6.31 µM (inconclusive) and the AC50 [11] is reported as 3.98 µM (inconclusive).

With `Cc1c(C(=O)Nc2nccs2)oc2ccccc12` the IC50 [12] was > 67.6 µM (inactive), the EC50 [13] was > 67.6 µM (inactive) and the EC50 [14] was > 67.6 µM (inactive).

For `COc1ccc(S(=O)(=O)N2CC[C@@H]3[C@@H](CO)Nc4ccc(-c5ccc(C#N)cc5)cc4[C@@H]32)cc1`, the AC50 [9] was 6.28 µM (active) and the AC50 [10] was 3.16 µM (active).

In the case of `Clc1ccccc1Nc1nnc(-c2ccncc2)s1`, the EC50 [15] is reported as > 150 µM (inconclusive), the AC50 [16] is reported as 5.65 µM (active) and the AC50 [17] is reported as 8.92 µM (active). The EC50 [18] was > 133 µM (inactive), the AC50 [19] was 4.19 µM (active) and the EC50 [20] was 0.799 µM (active). The AC50 [21] was 4.79 µM (active), the EC50 [22] was 5.43 µM (active) and the EC50 [23] was 2.56 µM (active). The EC50 [13] was > 67.5 µM (inactive), the AC50 [24] was 8 µM (active) and the AC50 [25] was 4.99 µM (active). The EC50 [26] was 7.07 µM (active).

In the case of `COc1ccc(NC(=O)COC(=O)c2cccc(S(=O)(=O)N(C)C)c2)cc1`, the EC50 [27] is reported as > 79.4 µM (not active), the EC50 [28] is reported as > 79.4 µM (not active) and the EC50 [29] is reported as > 79.4 µM (not active).

With `O=C(CSc1nnc2c3ccccc3c3ccccc3c2n1)Nc1ccccc1` the EC50 [27] was 39.1 µM (not active), the AC50 [30] was 7.94 µM (inconclusive) and the EC50 [28] was 31.7 µM (not active). The EC50 [29] was 28.6 µM (not active).
